# Laboratory results from patent publication US10238758B2, “Radiolabeled alpha-melanocyte stimulating hormone hybrid peptide for melanoma targeting” (STC.UNM, priority 2011, dated 2019).
# “Also recorded” adds a separate entry of the source. Positions of bridges follow the written chain, without caps; N, C: chain ends. Non-standard residues stand in square brackets, D forms with d. Residues, ends and D or L forms follow the SMILES beside them.
# Tests used:
# [1] = biological target: T1, MC1 receptor (Homo sapiens, UniProt Q01726); settings: M21 melanoma cells, cited from earlier work
# T1 construct: Both MC1 and αvβ3 integrin receptors are over-expressed in M21 melanoma cells [23]; endogenous in cells; host or cells: M21 human melanoma cells
# T1 sequence (Q01726 whole entry): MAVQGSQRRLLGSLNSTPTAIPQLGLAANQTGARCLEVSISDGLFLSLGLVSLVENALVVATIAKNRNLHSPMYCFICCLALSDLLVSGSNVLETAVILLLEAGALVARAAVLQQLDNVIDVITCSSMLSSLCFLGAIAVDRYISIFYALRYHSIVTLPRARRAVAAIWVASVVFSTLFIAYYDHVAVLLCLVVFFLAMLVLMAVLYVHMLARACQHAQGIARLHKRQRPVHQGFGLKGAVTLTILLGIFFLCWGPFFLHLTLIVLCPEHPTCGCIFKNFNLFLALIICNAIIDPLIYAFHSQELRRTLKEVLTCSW
# [2] = biological target: T2, αvβ3 integrin receptor (Homo sapiens, UniProt P05106+P06756); settings: M21 melanoma cells, vs RGD-Lys-(Arg11)CCMSH; cited from earlier work
# T2 construct: Both MC1 and αvβ3 integrin receptors are over-expressed in M21 melanoma cells [23]; endogenous in cells; host or cells: M21 human melanoma cells
# T2 sequence (P06756 31-889 limits assumed): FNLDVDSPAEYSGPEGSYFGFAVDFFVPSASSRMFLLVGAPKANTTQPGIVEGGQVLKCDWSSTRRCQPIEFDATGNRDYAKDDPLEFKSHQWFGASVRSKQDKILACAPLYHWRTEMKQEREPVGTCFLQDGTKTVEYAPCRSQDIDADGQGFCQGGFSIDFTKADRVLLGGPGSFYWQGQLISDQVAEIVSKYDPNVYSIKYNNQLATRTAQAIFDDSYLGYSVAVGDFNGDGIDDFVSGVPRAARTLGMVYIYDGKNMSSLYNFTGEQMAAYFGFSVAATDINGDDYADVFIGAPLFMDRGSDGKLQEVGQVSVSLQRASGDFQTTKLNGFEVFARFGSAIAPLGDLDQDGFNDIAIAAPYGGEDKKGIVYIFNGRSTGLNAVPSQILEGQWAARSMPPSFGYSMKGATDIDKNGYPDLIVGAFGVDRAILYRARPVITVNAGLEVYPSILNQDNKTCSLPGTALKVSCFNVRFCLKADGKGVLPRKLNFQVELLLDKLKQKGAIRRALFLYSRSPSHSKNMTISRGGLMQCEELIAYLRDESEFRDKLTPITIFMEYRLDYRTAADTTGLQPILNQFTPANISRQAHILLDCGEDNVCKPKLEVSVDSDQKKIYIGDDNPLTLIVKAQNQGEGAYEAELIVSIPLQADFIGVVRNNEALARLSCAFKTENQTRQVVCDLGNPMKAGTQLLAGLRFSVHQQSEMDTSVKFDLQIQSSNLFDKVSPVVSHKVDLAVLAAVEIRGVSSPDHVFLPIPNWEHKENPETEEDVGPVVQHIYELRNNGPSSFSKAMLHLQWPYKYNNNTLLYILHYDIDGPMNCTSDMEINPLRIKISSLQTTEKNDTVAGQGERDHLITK
# T2 sequence (P06756 891-1048 limits assumed): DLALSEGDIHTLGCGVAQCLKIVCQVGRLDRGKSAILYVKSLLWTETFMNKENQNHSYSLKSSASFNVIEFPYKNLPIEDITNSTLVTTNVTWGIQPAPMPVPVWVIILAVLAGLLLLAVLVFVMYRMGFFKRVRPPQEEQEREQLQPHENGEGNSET
# T2 sequence (P05106 27-788): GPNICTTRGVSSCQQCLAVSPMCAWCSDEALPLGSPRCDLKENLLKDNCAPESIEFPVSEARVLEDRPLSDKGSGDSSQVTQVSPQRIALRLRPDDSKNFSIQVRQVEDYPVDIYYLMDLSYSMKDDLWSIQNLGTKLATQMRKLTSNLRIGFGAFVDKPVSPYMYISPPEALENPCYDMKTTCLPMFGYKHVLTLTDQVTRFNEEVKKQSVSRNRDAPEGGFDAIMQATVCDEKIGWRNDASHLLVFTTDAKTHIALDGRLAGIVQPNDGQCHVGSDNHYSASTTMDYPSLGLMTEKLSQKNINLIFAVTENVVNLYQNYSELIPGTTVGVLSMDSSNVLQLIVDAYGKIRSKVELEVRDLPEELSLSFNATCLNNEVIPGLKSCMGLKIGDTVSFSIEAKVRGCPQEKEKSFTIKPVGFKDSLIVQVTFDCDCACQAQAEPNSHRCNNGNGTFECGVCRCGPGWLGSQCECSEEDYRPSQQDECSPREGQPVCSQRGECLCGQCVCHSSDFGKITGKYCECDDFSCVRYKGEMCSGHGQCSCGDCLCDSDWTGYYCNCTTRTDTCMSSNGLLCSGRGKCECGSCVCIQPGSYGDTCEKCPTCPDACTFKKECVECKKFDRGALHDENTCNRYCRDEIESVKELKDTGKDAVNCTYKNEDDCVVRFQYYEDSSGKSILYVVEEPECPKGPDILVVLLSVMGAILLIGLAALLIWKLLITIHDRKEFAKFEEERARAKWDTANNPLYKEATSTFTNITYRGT
# [3] = biological target: T3, MC1 receptor (Mus musculus, UniProt Q01727); experiment: MC1 receptor competitive binding with 125I-(Tyr2)-NDP-MSH in B16/F1 melanoma cells; parameters: species or system murine
# T3 construct: host or cells: B16/F1 murine melanoma cells
# T3 sequence (Q01727 whole entry): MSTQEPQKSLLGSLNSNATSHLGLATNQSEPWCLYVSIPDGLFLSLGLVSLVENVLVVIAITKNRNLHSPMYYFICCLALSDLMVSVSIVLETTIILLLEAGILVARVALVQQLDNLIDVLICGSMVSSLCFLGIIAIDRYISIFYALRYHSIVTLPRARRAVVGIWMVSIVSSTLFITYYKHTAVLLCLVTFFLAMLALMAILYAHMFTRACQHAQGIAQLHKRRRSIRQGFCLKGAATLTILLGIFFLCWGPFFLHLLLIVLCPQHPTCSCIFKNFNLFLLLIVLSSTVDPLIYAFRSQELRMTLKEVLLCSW
# Excerpt: Amino acid and resin were purchased from Advanced ChemTech Inc. (Louisville, Ky.) and Novabiochem (San Diego, Calif.). ^125I-Tyr^2-[Nle^4, DPhe^7]-α-MSH {^125I-(Tyr^2)-NDP-MSH} was obtained from PerkinElmer, Inc. (Shelton, Conn.) for MC1 receptor binding assay. ^99mTcO4^− was purchased from Cardinal Health (Albuquerque, N. Mex.) for peptide radiolabeling. All other chemicals used in this study were purchased from Thermo Fisher Scientific (Waltham, Mass.) and used without further purification. B16/F1 murine melanoma cells were obtained from American Type Culture Collection (Manassas, Va.).
# The RAD-Lys-(Arg^11)CCMSH was synthesized according to our published procedure, purified by reverse phase-high performance liquid chromatography (RP-HPLC) and characterized by LC-mass spectroscopy. The IC50 value of RAD-Lys-(Arg^11)CCMSH for the MC1 receptor was determined in B16/F1 melanoma cells. Briefly, the B16/F1 cells were harvested and seeded into a 24-well cell culture plate (0.2×10^6 cells/well) and incubated at 37° C. overnight. […] The radioactivities associated with cells were measured in a Wallac 1480 automated gamma counter (PerkinElmer, NJ). The IC50 value of RAD-Lys-(Arg^11)CCMSH was calculated using the Prism software (GraphPad Software, La Jolla, Calif.).
# [4] = system: B16/F1 melanoma cells; experiment: Cellular internalization and efflux in B16/F1 melanoma cells; assay type: cell-based, murine; settings: for activity internalized: 25° C.
# Experimental: RAD-Lys-(Arg^11)CCMSH was radiolabeled with ^99mTc using the method described previously. The radiolabeled peptide was purified to single species by Waters RP-HPLC (Milford, Mass.) on a Grace Vydac C-18 reverse phase analytic column (Deerfield, Ill.) using a 20 min gradient of 16-26% acetonitrile in 20 mM HCl aqueous solution at a flow rate of 1 mL/min. Cellular internalization and efflux of ^99mTc-RAD-Lys-(Arg^11)CCMSH were evaluated in B16/F1 melanoma cells. Briefly, the B16/F1 cells in 24-well cell culture plates were incubated at 25° C. for 20, 40, 60, 90 and 120 min (n=4) in the presence of approximately 200,000 cpm of HPLC purified ^99mTc-RAD-Lys-(Arg^11)CCMSH. After incubation, the reaction medium was aspirated and the cells were rinsed twice with 0.5 mL of ice-cold pH 7.4, 0.2% BSA/0.01 M PBS. Cellular internalization of ^99mTc-RAD-Lys-(Arg^11) CCMSH was assessed by washing the cells with acidic buffer [40 mM sodium acetate (pH 4.5) containing 0.9% NaCl and 0.2% BSA] to remove the membrane-bound radioactivity. The remaining internalized radioactivity was obtained by lysing the cells with 0.5 mL of 1 N NaOH for 5 min. Membrane-bound and internalized ^99mTc activities were counted in a gamma counter. Cellular efflux of ^99mTc-RAD-Lys-(Arg^11)CCMSH was determined by incubating the B16/F1 cells with ^99mTc-RAD-Lys-(Arg^11)CCMSH for 2 h at 25° C., removing non-specific-bound radioactivity with 2×0.5 mL of ice-cold pH 7.4, 0.2% BSA/0.01 M PBS rinse, and monitoring radioactivity released into cell culture medium. At time points of 20, 40, 60, 90 and 120 min, the radioactivities in medium, on cell surface and in cells were separately collected and counted in a gamma counter.
# [5] = system: B16/F1 melanoma-bearing C57 mice; experiment: Biodistribution in B16/F1 melanoma-bearing C57 mice; assay type: in vivo
# Experimental: All the animal studies were conducted in compliance with Institutional Animal Care and Use Committee approval. The biodistribution of ^99mTc-RAD-Lys-(Arg^11)CCMSH was determined in B16/F1 melanoma-bearing C57 mice (Harlan, Indianapolis, Ind.). C57 mice were subcutaneously inoculated on the right flank with 1×10^6 B16/F1 cells. Tumor weights reached approximately 0.2 g at 10 days post cell inoculation. Each melanoma-bearing mouse was injected with 0.037 MBq of ^99mTc-RAD-Lys-(Arg^11)CCMSH via the tail vein. Groups of 5 mice were sacrificed at 0.5, 2, 4 and 24 h post-injection, and tumors and organs of interest were harvested, weighed and counted. Blood values were taken as 6.5% of the whole-body weight.
# The specificity of tumor uptake was determined at 2 h post-injection by co-injecting ^99mTc-RAD-Lys-(Arg^11)CCMSH with 10 μg (6.1 nmol) of unlabeled NDP-MSH. L-lysine co-injection is effective in decreasing the renal uptake of radiolabeled α-MSH peptides. To determine the effect of L-lysine co-injection on the renal uptake of ^99mTc-RAD-Lys-(Arg^11)CCMSH, a group of 5 mice were injected with a mixture of 0.037 MBq of ^99mTc-RAD-Lys-(Arg^11)CCMSH and 12 mg of L-lysine. The mice were sacrificed at 2 h post-injection, and tumors and organs of interest were harvested, weighed and counted in a gamma counter.
# Statistical analysis was performed using the Student's t-test for unpaired data to determine the significance of differences in tumor and kidney uptake between the groups in the biodistribution studies with/without peptide blockade or with/without L-lysine co-injection. Differences at the 95% confidence level (p<0.05) were considered significant.
# [6] = system: B16/F1 melanoma-bearing C57 mouse; experiment: SPECT/CT melanoma imaging in a B16/F1 melanoma-bearing C57 mouse; assay type: in vivo; settings: 2 h post-injection
# Experimental: (§1) Approximately 6.7 MBq of ^99mTc-RAD-Lys-(Arg^11)CCMSH was injected in a B16/F1 melanoma-bearing C57 mouse for imaging and urine analysis. The mouse was euthanized at 2 h post-injection for small animal SPECT/CT (Nano-SPECT/CT®, Bioscan) imaging, as well as to collect urine for analyzing the metabolites. The 9-min CT imaging was immediately followed by the whole-body SPECT scan. The SPECT scans of 24 projections were acquired. Reconstructed SPECT and CT data were visualized and co-registered using InVivoScope (Bioscan, Washington D.C.). The collected urine sample was centrifuged at 16,000 g for 5 min before the HPLC analysis. Thereafter, aliquots of the urine were injected into the HPLC. A 20-minute gradient of 16-26% acetonitrile/20 mM HCl with a flow rate of 1 mL/min was used for urine analysis.
# [7] = Urinary metabolites by HPLC in a B16/F1 melanoma-bearing C57 mouse; assay type: in vivo; settings: 2 h post-injection
# Experimental: as §1
compound,measurement,setting,value
CC(C)[C@H](NC(=O)[C@@H]1CCCN1C(=O)[C@H](CCCNC(=N)N)NC(=O)[C@H](CS)NC(=O)[C@H](Cc1c[nH]c2ccccc12)NC(=O)[C@H](CCCNC(=N)N)NC(=O)[C@@H](Cc1ccccc1)NC(=O)[C@H](Cc1c[nH]cn1)NC(=O)[C@H](CCC(=O)O)NC(=O)[C@H](CS)NC(=O)[C@H](CS)NC(=O)[C@H](CCCCN)NC(=O)[C@@H]1CC(=O)N[C@@H](CCCNC(=N)N)C(=O)N[C@@H](C)C(=O)N[C@@H](CC(=O)O)C(=O)N[C@H](Cc2ccc(O)cc2)C(=O)N1)C(N)=O [RAD-Lys-(Arg^11)CCMSH] (RAD[dY]DKCCEH[dF]RWCRPV-NH2; lactam N-5 (inferred)),increase of MC1 receptor binding affinity by switch from RGD to RAD,[1]; vs RGD-Lys-(Arg11)CCMSH,6.7 fold
same,decrease of αvβ3 integrin receptor binding affinity by switch from RGD to RAD,[2],248 fold
"CC(C)[C@H](NC(=O)[C@@H]1CCCN1C(=O)[C@H](CCCNC(=N)N)NC(=O)[C@H](CS)NC(=O)[C@H](Cc1c[nH]c2ccccc12)NC(=O)[C@H](CCCNC(=N)N)NC(=O)[C@@H](Cc1ccccc1)NC(=O)[C@H](Cc1c[nH]cn1)NC(=O)[C@H](CCC(=O)O)NC(=O)[C@H](CS)NC(=O)[C@H](CS)NC(=O)[C@H](CCCCN)NC(=O)[C@@H]1CC(=O)N[C@@H](CCCNC(=N)N)C(=O)N[C@@H](C)C(=O)N[C@@H](CC(=O)O)C(=O)N[C@H](Cc2ccc(O)cc2)C(=O)N1)C(N)=O [^99mTc-RAD-Lys-(Arg^11)CCMSH, metal not drawn] (RAD[dY]DKCCEH[dF]RWCRPV-NH2; lactam N-5)",IC50,[3],0.26 nM
same,activity internalized,[4]; 20 min post incubation,59.20±5.10%
same,"cellular internalization and retention, in words",[4]; B16/F1 melanoma cells,rapid cellular internalization and extended cellular retention
same,activity internalized,[4]; after 2 h incubation,78.24±1.13%
same,tumor uptake with NDP-MSH co-injection as % of tumor uptake without,"[5]; 10 μg (6.1 nmol) non-radiolabeled NDP-MSH co-injection, 2 h post-injection, p<0.01",7.8%
same,liver uptake as % of liver uptake of 99mTc-RGD-Lys-(Arg11)CCMSH,[5]; 0.5 h post-injection,66.2%
same,renal uptake relative to 99mTc-RGD-Lys-(Arg11)CCMSH,[5]; 0.5 h post-injection,1.84 times
same,tumor uptake relative to 99mTc-RGD-Lys-(Arg11)CCMSH,[5]; 0.5 h post-injection,1.51 times
same,effect of L-lysine co-injection on tumor uptake,[5]; 2 h post-injection,without affecting the tumor uptake
same,liver uptake as % of liver uptake of 99mTc-RGD-Lys-(Arg11)CCMSH,[5]; 2 h post-injection,61.9%
same,renal uptake relative to 99mTc-RGD-Lys-(Arg11)CCMSH,[5]; 2 h post-injection,1.39 times
same,tumor uptake relative to 99mTc-RGD-Lys-(Arg11)CCMSH,[5]; 2 h post-injection,1.34 times
same,renal uptake relative to 99mTc-RGD-Lys-(Arg11)CCMSH,[5]; 4 h post-injection,1.42 times
same,tumor uptake relative to 99mTc-RGD-Lys-(Arg11)CCMSH,[5]; 4 h post-injection,1.43 times
same,liver uptake as % of liver uptake of 99mTc-RGD-Lys-(Arg11)CCMSH,[5]; 24 h post-injection,72.3%
same,decrease of renal uptake by L-lysine co-injection,[5]; L-lysine co-injection,46%
same,effect of peptide blockade co-injection on renal uptake,[5]; NDP-MSH co-injection,did not reduce the renal uptake
same,visualization of melanoma lesions by SPECT/CT,[6],visualized clearly; also recorded: clearly visualized
same,remained intact in urine,[7],Approximately 82%
same,transformed to a more lipophilic metabolite,[7]; urine,18%
"RGD-Lys-(Arg^11)CCMSH [cyclic RGD {Arg-Gly-Asp-DTyr-Asp} motif conjugated to [Cys3,4,10, D-Phe7, Arg11]α-MSH3-13 peptide via a lysine linker, reference compound]",IC50,"[1]; from ref. 23, read-out: MC1 receptor binding affinity",2 nM
